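How tested: cells in 96-well plates exposed to compound for 48 hours at five concentrations. GI50 marks 50% less growth.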 Activity calls are given as the source filed them. Cut-off read from the data, not from the text of the source: active = GI50 up to about 1.1 µM and inactive = higher.
Tests used:
Experiment in all cases: inhibition of tumour cell growth, NCI panel, 48 h
ACHN = system: ACHN
HCC 2998 = system: HCC 2998
OVCAR-3 = system: OVCAR-3
CCRF-CEM = system: CCRF-CEM
RPMI-8226 = system: RPMI-8226
RXF 393 = system: RXF 393
OVCAR-4 = system: OVCAR-4
HCT-15 = system: HCT-15
NCI-H460 = system: NCI-H460
HOP-92 = system: HOP-92
HT-29 = system: HT-29
786-0 = system: 786-0
M14 = system: M14
SF-295 = system: SF-295
SNB-75 = system: SNB-75
SF-539 = system: SF-539
LOX IMVI = system: LOX IMVI
UACC-62 = system: UACC-62
IGROV-1 = system: IGROV-1
A498 = system: A498

Row | Compound | GI50 (ACHN) | GI50 (HCC 2998) | GI50 (OVCAR-3) | GI50 (CCRF-CEM) | GI50 (RPMI-8226) | GI50 (RXF 393) | GI50 (OVCAR-4) | GI50 (HCT-15) [µM] | GI50 (NCI-H460) | GI50 (HOP-92) | GI50 (HT-29) | GI50 (786-0) | GI50 (M14) | GI50 (SF-295) | GI50 (SNB-75) | GI50 (SF-539) | GI50 (LOX IMVI) | GI50 (UACC-62) | GI50 (IGROV-1) | GI50 (A498)
1 | CC1(C)C(=O)N(O)C(C)(C)N1N=O | > 10 µM (inactive) | > 10 µM (inactive) | > 10 µM (inactive) | > 10 µM (inactive) | 1.89 µM (inactive) | > 10 µM (inactive) | > 10 µM (inactive) | > 10 | > 10 µM (inactive) | > 10 µM (inactive) | > 10 µM (inactive) | > 10 µM (inactive) | > 10 µM (inactive) | > 10 µM (inactive) |  |  |  |  |  | 
2 | CC/C(=N/O)c1ccc2[nH]c3c(C)cc([N+](=O)[O-])c(C)c3c2c1 | 25.1 µM (inactive) | 83.8 µM (inactive) | 36.1 µM (inactive) | 15.1 µM (inactive) | 52.7 µM (inactive) |  | 87.9 µM (inactive) | 51.1 | 39.2 µM (inactive) |  | 37.4 µM (inactive) | 36 µM (inactive) | 23.6 µM (inactive) | 52 µM (inactive) | 57.3 µM (inactive) | 51.5 µM (inactive) | 54.1 µM (inactive) |  |  | 
3 | CC1(C)C(=NNC(=S)NN)C(C)(C)C1=NNC(=S)NN | > 100 µM (inactive) | > 100 µM (inactive) | > 100 µM (inactive) | 60.8 µM (inactive) | > 100 µM (inactive) | > 100 µM (inactive) | > 100 µM (inactive) |  |  | > 100 µM (inactive) | > 100 µM (inactive) | > 100 µM (inactive) | > 100 µM (inactive) | > 100 µM (inactive) | 98.4 µM (inactive) | > 100 µM (inactive) | > 100 µM (inactive) | > 100 µM (inactive) | > 100 µM (inactive) | 
4 | Nc1ccc2nc(NCc3ccc(F)cc3)cnc2c1 | > 100 µM (inactive) | > 100 µM (inactive) | > 100 µM (inactive) | > 100 µM (inactive) | > 100 µM (inactive) | 59.6 µM (inactive) | > 100 µM (inactive) | > 100 | > 100 µM (inactive) |  | > 100 µM (inactive) | > 100 µM (inactive) | > 100 µM (inactive) | > 100 µM (inactive) | 29.2 µM (inactive) | 79.3 µM (inactive) | > 100 µM (inactive) | > 100 µM (inactive) | > 100 µM (inactive) | 
5 | COc1ccc(CC2NCCc3cc(OC)c(OC)cc32)cc1 (stereo unspecified) | > 100 µM (inactive) | > 100 µM (inactive) | > 100 µM (inactive) | > 100 µM (inactive) | > 100 µM (inactive) | > 100 µM (inactive) | > 100 µM (inactive) | > 100 | > 100 µM (inactive) | 57.4 µM (inactive) | > 100 µM (inactive) | > 100 µM (inactive) | > 100 µM (inactive) | > 100 µM (inactive) | > 100 µM (inactive) | > 100 µM (inactive) | > 100 µM (inactive) | > 100 µM (inactive) | > 100 µM (inactive) | 
6 | COc1cccc(-c2cccc(SC)n2)n1 | 36.8 µM (inactive) | 23.4 µM (inactive) | 20.8 µM (inactive) | 18.2 µM (inactive) | 23.4 µM (inactive) | 18.7 µM (inactive) | 36.2 µM (inactive) | 27 | 29 µM (inactive) | 19.5 µM (inactive) | 21.8 µM (inactive) | 28.8 µM (inactive) | 24 µM (inactive) | 34.4 µM (inactive) | 26.4 µM (inactive) | 32.1 µM (inactive) | 33.1 µM (inactive) | 36.2 µM (inactive) | 27.2 µM (inactive) | 
7 | CCOC(=O)COc1cccc2c1C(=O)CCO2 | > 100 µM (inactive) | > 100 µM (inactive) | > 100 µM (inactive) | > 100 µM (inactive) | > 100 µM (inactive) |  | > 100 µM (inactive) | > 100 | > 100 µM (inactive) |  | > 100 µM (inactive) | > 100 µM (inactive) | > 100 µM (inactive) | > 100 µM (inactive) |  | > 100 µM (inactive) | > 100 µM (inactive) | > 100 µM (inactive) | > 100 µM (inactive) | > 100 µM (inactive)
8 | CC(C)(C)OC(=O)N/N=C(/N)Cc1ccc(Cl)cc1 | > 100 µM (inactive) | > 100 µM (inactive) | > 100 µM (inactive) | > 100 µM (inactive) |  | > 100 µM (inactive) | > 100 µM (inactive) | > 100 | > 100 µM (inactive) |  | 73.1 µM (inactive) | > 100 µM (inactive) | > 100 µM (inactive) | > 100 µM (inactive) | > 100 µM (inactive) |  | > 100 µM (inactive) | > 100 µM (inactive) | > 100 µM (inactive) | > 100 µM (inactive)
